Each block holds one compound with its values, some of them ahead of it.
Tests used:
[1] = target: T1, Tyrosine-protein kinase ITK/TSK (Homo sapiens, UniProt Q08881); assay: Inhibition of human N-terminal His6 tagged ITK (354 to 620 residues) expressed in Sf9 insect cells incubated for 30 mins by time-resolved fluorescence assay
T1 sequence (Q08881 whole entry): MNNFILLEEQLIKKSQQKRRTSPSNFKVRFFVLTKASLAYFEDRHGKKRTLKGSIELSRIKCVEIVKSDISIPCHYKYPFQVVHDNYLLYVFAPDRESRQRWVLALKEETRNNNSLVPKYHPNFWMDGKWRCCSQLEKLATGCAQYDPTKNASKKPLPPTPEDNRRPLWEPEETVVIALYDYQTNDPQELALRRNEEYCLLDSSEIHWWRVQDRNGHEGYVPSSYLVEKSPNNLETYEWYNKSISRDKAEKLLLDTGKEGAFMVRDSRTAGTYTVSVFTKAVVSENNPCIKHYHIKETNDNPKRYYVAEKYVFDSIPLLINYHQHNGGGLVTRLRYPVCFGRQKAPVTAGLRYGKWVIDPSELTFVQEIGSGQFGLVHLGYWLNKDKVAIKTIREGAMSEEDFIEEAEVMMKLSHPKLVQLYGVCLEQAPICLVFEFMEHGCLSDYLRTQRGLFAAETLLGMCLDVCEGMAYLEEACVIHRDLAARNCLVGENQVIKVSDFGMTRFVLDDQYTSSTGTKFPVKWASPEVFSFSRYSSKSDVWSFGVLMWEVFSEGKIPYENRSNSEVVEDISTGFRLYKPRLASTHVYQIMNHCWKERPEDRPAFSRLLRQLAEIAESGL

[2] = target: Serine/threonine-protein kinase WNK1 (Homo sapiens, UniProt Q9H4A3); assay: Inhibition of human WNK1 (198 to 401 residues) using biotinylated STK3 as substrate incubated for 2 hrs by HTRF assay
[3] = Binding affinity to MEK1/2 (unknown origin) assessed as dissociation constant; parameters: species or system Homo sapiens
[4] = target: Hepatocyte growth factor receptor (Homo sapiens, UniProt P08581); assay: Inhibition of c-Met (unknown origin)
[5] = Inhibition of MEK1/2 (unknown origin); parameters: species or system Homo sapiens

Chain of Hepatocyte growth factor receptor (P08581 whole entry): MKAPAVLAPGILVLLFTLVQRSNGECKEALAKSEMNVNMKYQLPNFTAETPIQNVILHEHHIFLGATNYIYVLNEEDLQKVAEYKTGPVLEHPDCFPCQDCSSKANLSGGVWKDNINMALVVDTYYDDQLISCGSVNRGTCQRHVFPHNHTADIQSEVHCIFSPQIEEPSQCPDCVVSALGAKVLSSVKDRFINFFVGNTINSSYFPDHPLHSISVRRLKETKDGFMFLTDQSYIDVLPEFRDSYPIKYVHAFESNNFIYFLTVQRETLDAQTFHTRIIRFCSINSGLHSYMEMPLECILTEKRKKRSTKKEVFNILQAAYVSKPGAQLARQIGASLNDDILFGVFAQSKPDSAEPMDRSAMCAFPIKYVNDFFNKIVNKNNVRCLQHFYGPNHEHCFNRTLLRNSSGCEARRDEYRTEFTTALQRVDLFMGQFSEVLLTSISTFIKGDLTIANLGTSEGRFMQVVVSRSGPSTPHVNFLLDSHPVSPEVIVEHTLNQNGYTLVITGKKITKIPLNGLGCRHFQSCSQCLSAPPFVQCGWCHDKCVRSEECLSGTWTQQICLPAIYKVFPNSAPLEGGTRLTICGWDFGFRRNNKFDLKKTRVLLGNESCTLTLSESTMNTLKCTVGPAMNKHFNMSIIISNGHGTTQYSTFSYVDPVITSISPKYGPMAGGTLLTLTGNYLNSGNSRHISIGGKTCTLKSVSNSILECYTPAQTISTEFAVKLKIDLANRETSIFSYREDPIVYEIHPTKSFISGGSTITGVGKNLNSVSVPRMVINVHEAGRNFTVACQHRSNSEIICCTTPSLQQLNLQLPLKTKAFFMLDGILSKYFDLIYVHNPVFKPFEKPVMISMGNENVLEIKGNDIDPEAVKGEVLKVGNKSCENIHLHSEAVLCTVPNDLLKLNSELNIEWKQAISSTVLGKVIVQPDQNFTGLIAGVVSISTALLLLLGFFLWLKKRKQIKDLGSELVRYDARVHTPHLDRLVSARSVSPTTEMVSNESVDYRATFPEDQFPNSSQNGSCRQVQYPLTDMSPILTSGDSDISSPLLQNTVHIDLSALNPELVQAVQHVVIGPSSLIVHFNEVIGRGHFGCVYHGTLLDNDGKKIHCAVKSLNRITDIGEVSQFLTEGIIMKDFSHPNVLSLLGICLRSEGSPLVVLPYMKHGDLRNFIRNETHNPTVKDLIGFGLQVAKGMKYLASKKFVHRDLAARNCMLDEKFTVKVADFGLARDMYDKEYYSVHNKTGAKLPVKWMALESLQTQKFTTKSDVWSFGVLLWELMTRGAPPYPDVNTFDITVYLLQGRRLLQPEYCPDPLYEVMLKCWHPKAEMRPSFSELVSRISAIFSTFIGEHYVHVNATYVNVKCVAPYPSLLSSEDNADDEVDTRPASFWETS
Chain of Serine/threonine-protein kinase WNK1 (Q9H4A3 whole entry, the tested form may be a part): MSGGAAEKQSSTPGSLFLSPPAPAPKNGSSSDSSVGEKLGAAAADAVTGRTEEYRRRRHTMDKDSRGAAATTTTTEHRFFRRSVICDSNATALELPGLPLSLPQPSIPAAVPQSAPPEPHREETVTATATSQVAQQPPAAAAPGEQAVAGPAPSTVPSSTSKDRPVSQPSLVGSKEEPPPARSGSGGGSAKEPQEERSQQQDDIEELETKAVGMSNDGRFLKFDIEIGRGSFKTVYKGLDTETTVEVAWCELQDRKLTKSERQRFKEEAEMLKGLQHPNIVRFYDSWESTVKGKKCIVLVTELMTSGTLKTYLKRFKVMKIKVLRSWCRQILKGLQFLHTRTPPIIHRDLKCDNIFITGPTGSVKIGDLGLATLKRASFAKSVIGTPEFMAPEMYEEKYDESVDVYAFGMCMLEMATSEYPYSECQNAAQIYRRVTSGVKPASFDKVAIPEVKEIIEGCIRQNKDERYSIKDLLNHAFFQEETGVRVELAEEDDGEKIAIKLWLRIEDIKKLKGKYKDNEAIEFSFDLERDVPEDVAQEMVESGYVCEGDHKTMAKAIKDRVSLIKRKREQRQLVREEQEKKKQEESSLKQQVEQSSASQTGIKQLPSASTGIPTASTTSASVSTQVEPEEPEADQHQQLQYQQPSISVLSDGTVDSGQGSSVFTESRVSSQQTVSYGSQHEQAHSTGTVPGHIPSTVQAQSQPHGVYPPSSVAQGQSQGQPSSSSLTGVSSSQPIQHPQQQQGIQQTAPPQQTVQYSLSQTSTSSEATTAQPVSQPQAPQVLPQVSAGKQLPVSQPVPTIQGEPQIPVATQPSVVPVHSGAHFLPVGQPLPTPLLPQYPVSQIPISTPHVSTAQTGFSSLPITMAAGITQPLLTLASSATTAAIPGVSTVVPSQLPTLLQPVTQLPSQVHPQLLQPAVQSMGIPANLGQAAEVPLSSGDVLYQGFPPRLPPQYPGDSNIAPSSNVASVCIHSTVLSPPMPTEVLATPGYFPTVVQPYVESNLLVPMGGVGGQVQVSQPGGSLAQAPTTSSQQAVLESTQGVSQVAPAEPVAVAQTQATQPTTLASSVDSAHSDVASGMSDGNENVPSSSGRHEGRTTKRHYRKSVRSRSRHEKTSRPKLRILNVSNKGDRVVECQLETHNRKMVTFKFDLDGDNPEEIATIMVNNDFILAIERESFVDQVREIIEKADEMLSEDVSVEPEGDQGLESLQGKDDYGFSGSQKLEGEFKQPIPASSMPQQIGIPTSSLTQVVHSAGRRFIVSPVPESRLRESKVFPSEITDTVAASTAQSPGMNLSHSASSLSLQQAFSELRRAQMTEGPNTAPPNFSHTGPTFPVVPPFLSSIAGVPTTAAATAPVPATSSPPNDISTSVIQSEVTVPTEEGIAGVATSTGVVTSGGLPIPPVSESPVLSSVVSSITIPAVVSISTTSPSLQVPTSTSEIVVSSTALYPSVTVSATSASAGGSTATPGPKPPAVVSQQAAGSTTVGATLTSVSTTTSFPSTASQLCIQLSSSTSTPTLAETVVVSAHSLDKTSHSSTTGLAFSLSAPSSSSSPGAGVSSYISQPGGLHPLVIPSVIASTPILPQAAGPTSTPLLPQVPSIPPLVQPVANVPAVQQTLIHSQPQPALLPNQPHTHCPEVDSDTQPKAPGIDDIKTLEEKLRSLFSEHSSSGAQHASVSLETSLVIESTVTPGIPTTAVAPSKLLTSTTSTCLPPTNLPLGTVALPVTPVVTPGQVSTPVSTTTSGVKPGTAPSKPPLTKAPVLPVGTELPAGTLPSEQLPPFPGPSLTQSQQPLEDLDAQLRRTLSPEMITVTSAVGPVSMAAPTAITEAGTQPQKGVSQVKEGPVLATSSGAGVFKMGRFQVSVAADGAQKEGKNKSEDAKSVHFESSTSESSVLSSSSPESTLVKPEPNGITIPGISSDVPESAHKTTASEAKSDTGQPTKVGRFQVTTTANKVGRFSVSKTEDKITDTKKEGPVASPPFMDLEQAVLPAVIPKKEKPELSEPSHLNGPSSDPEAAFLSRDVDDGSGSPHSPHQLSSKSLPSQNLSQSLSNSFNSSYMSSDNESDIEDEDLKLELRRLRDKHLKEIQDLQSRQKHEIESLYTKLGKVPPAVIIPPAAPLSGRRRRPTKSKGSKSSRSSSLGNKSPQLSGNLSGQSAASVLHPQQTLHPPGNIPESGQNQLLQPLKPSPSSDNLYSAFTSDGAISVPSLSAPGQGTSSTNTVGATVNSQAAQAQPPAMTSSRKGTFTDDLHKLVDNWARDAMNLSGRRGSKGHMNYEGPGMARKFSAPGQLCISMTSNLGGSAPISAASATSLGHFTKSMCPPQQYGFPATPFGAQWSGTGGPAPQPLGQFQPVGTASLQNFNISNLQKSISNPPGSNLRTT

Compound: CC(C)Oc1ccc2cccc(-n3cc(NC(N)=O)c(C(N)=O)n3)c2c1
IC50 [1]: 30 nM

Compound: CNc1nc(-c2ccc3c(c2)CCN3C(=O)c2ccccc2OCc2ccc(Cl)cc2)cs1
IC50 [2]: 120 nM

Other lines, results leading:

Kd [3]: 14 nM
Compound: Cn1cnc2c(F)c(Nc3ccc(Br)cc3Cl)c(C(=O)NOCCO)cc21 [SELUMETINIB]

IC50 [4]: 360 nM
Compound: O=C1NC(=O)[C@@H](c2cn3c4c(cccc24)CCC3)[C@@H]1c1c[nH]c2ccccc12 [TIVANTINIB]

Kd [3]: 3 nM | IC50 [5]: 2 nM
Compound: CC(=O)Nc1cccc(-n2c(=O)n(C3CC3)c(=O)c3c(Nc4ccc(I)cc4F)n(C)c(=O)c(C)c32)c1 [TRAMETINIB]
